Reference: US20180141962A1, “AZACARBAZOLE BTK INHIBITORS” (MERCK SHARP & DOHME CORP., priority 2015, published 2018)

What follows are compounds tested against T1, BTK enzyme (recombinant full-length BTK, hBTK) (Homo sapiens, UniProt Q06187) (assay: Btk enzyme activity assay, LANCE TR-FRET). Details: 50 pM hBTK, 2 μM biotin-A5-peptide, 25 μM ATP; 60 minute compound & enzyme incubation; 120 minutes reaction; read-out: BTK binding potency IC50.
T1 construct: recombinant protein from baculovirus-transfected Sf9 cells: full-length BTK, 6HIS-tag cleaved; 6HIS (cleaved yes); made in house; host or cells: baculovirus-transfected Sf9 cells
T1 sequence (Q06187 whole entry): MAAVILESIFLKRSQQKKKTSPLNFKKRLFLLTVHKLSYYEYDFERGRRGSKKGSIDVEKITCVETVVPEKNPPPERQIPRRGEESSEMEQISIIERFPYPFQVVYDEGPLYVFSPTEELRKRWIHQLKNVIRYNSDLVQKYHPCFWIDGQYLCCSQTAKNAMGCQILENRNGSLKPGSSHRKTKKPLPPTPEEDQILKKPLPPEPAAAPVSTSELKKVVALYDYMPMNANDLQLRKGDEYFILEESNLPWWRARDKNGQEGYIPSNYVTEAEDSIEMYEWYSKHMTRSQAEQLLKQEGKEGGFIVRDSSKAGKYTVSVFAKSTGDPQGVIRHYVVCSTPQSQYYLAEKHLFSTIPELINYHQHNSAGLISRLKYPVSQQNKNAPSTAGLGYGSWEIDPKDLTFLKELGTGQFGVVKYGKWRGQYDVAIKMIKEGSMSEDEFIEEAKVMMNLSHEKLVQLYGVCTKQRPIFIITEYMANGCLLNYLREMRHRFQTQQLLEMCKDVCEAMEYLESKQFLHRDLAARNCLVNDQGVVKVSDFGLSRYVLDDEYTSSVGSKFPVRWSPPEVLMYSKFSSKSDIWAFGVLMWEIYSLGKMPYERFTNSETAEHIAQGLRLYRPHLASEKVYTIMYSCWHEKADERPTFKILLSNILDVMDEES
Format: biochemical
Procedure: Btk Enzyme Activity Assay Methods
BTK enzymatic activity was determined with the LANCE (Lanthanide Chelate Excite) TR-FRET (lime-resolved fluorescence resonance energy transfer) assay. […] Phosphorylation reactions were allowed to proceed for 120 minutes. […] After 60 minutes incubation with detection reagents, reaction plates were read on a PerkinElmer EnVision plate reader using standard TR-FRET protocol. Briefly, excitation of donor molecules (Eu-chelate:anti-phospho-antibody) with a laser light source at 337 nm produces energy that can be transferred to Dylight-650 acceptor molecules if this donor:acceptor pair is within close proximity. Fluorescence intensity at both 665 nm (acceptor) and 615 nm (donor) are measured and a TR-FRET ratio calculated for each well (acceptor intensity/donor intensity). IC50 values were determined by 4 parameter robust fit of TR-FRET ratio values vs. (Log10) compound concentrations.
`CN1CC[C@@]2(CCCN(c3ncc(C(N)=O)c4[nH]c5cc(-c6ccc(C(O)C(F)(F)F)cc6)ccc5c34)C2)C1=O` (stereo partly drawn) [Example 78, 1-[(5R)-2-methyl-1-oxo-2,7-diazaspiro[4.5]dec-7-yl]-7-[4-(2,2,2-trifluoro-1-hydroxyethyl)phenyl]-5H-pyrido[4,3-b]indole-4-carboxamide] was tested, and the IC50 was 59.9 nM.
For `NC(=O)c1cnc(N2CCCC3(CCCN(c4ccc(F)cc4)C3=O)C2)c2c1[nH]c1ccccc12` (stereo not shown) [Example 4, 1-[8-(4-fluorophenyl)-7-oxo-2,8-diazaspiro[5.5]undec-2-yl]-5H-pyrido[4,3-b]indole-4-carboxamide], the IC50 was 17 nM.
With `CC(C)(C)c1ccc(C(=O)N2CCCC3(CCCCN3c3ncc(C(N)=O)c4[nH]c5ccccc5c34)C2)cc1` (stereo not shown) [Example 25, 1-{8-[(4-tert-butylphenyl)carbonyl]-1,8-diazaspiro[5.5]undec-1-yl}-5H-pyrido[4,3-b]indole-4-carboxamide] the IC50 was 536 nM.
`CC(=O)N1CCC(c2ccc3[nH]c4c(C(N)=O)cnc(N5CCCC6(CCNC6=O)C5)c4c3c2)CC1` (stereo not shown) [Example 61, 8-(1-acetylpiperidin-4-yl)-1-(1-oxo-2,7-diazaspiro[4.5]dec-7-yl)-5H-pyrido[4,3-b]indole-4-carboxamide] showed an IC50 of 81.8 nM.
`CC(=O)N1CC2(CCN(c3ncc(C(N)=O)c4[nH]c5ccccc5c34)CC2)C1` [Example 20, 1-(2-acetyl-2,7-diazaspiro[3.5]non-7-yl)-5H-pyrido[4,3-b]indole-4-carboxamide] was tested, and the IC50 was 58.6 nM.
`CC(C)(C)OC(=O)N1CC2(CCCN(c3ncc(C(N)=O)c4[nH]c5ccccc5c34)C2)C1` [Example 28, tert-butyl 6-(4-carbamoyl-5H-pyrido[4,3-b]indol-1-yl)-2,6-diazaspiro[3.5]nonane-2-carboxylate] was tested, and the IC50 was 579 nM.
Compound `CC(C)N1CCC(c2ccc3c(c2)[nH]c2c(C(N)=O)cnc(N4CCC[C@@]5(CCN(C)C5=O)C4)c23)CC1` [Example 76, 7-[1-(1-methylethyl)piperidin-4-yl]-1-[(5R)-2-methyl-1-oxo-2,7-diazaspiro[4.5]dec-7-yl]-5H-pyrido[4,3-b]indole-4-carboxamide] has an IC50 of 0.64 nM.
In the case of `CN1CC(CO)C2(CCCN(c3ncc(C(N)=O)c4[nH]c5ccccc5c34)C2)C1=O` (single isomer, unassigned) [Example 91, cis-1-(4-(hydroxymethyl)-2-methyl-1-oxo-2,7-diazaspiro[4.5]decan-7-yl)-5H-pyrido[4,3-b]indole-4-carboxamide], the IC50 is reported as 1000 nM.
`NC(=O)c1cnc(N2CCCC3(CCN(c4ccc(F)cc4)C3=O)C2)c2c1[nH]c1ccccc12` (stereo not shown) [Example 32, 1-[2-(4-fluorophenyl)-1-oxo-2,7-diazaspiro[4.5]dec-7-yl]-5H-pyrido[4,3-b]indole-4-carboxamide] showed an IC50 of 244 nM.
`NC(=O)c1cnc(N2CCC[C@@]3(CCCN(c4ccc(F)cc4)C3=O)C2)c2c1[nH]c1ccc(F)cc12` [Example 6, 8-fluoro-1-[(6R)-8-(4-fluorophenyl)-7-oxo-2,8-diazaspiro[5.5]undec-2-yl]-5H-pyrido[4,3-b]indole-4-carboxamide] showed an IC50 of 853 nM.
Work on `CN1CC[C@@]2(CCCN(c3ncc(C(N)=O)c4[nH]c5cc(-c6cccc(C(O)C(F)(F)F)c6)ccc5c34)C2)C1=O` (stereo partly drawn) [Example 79, 1-[(5R)-2-methyl-1-oxo-2,7-diazaspiro[4.5]dec-7-yl]-7-[3-(2,2,2-trifluoro-1-hydroxyethyl)phenyl]-5H-pyrido[4,3-b]indole-4-carboxamide] yielded an IC50 of 63 nM.
For `COC(=O)c1ccc2c(c1)[nH]c1c(C(N)=O)cnc(N3CCCC4(CCNC4=O)C3)c12` (stereo not shown) [Example 83, Methyl 4-carbamoyl-1-(1-oxo-2,7-diazaspiro[4.5]decan-7-yl)-5H-pyrido[4,3-b]indole-7-carboxylate], the IC50 was 57.2 nM.
`NC(=O)c1cnc(N2CCC3(CC2)CNC3)c2c1[nH]c1ccccc12` [Example 19, 1-(2,7-diazaspiro[3.5]non-7-yl)-5H-pyrido[4,3-b]indole-4-carboxamide] showed an IC50 of 22 nM.
`CC(C)(C)OC(=O)N1CCC(c2ccc3c(c2)[nH]c2c(C(N)=O)cnc(N4CCCC5(CCNC5=O)C4)c23)CC1` (stereo not shown) [Example 43, tert-butyl 4-[4-carbamoyl-1-(1-oxo-2,7-diazaspiro[4.5]dec-7-yl)-5H-pyrido[4,3-b]indol-7-yl]piperidine-1-carboxylate] was tested, and the IC50 was 7.4 nM.
Compound `CC(C)(O)CN1CCC(c2ccc3c(c2)[nH]c2c(C(N)=O)cnc(N4CCCC5(CCNC5=O)C4)c23)CC1` (stereo not shown) [Example 54, 7-[1-(2-hydroxy-2-methylpropyl)piperidin-4-yl]-1-(1-oxo-2,7-diazaspiro[4.5]dec-7-yl)-5H-pyrido[4,3-b]indole-4-carboxamide] has an IC50 of 1.2 nM.
`NC(=O)c1cnc(N2CCCC3(CCNC3=O)C2)c2c1[nH]c1cc(C3CCNCC3)ccc12` (stereo not shown) [Example 42, 1-(1-oxo-2,7-diazaspiro[4.5]decan-7-yl)-7-(piperidin-4-yl)-5H-pyrido[4,3-b]indole-4-carboxamide] gave an IC50 of 1.4 nM.
With `NC(=O)c1cnc(N2CCCC3(CCNC3=O)C2)c2c1[nH]c1ccc(C(=O)O)cc12` (stereo not shown) [Example 84, 4-carbamoyl-1-(1-oxo-2,7-diazaspiro[4.5]dec-7-yl)-5H-pyrido[4,3-b]indole-8-carboxylic acid] the IC50 was 48.8 nM.
`COC(=O)N1CCC(c2ccc3[nH]c4c(C(N)=O)cnc(N5CCCC6(CCNC6=O)C5)c4c3c2)CC1` (stereo not shown) [Example 51, methyl 4-[4-carbamoyl-1-(1-oxo-2,7-diazaspiro[4.5]dec-7-yl)-5H-pyrido[4,3-b]indol-8-yl]piperidine-1-carboxylate] showed an IC50 of 87.9 nM.
Compound `CC(=O)N1CC2(CCCN(c3ncc(C(N)=O)c4[nH]c5ccccc5c34)C2)C1` [Example 29, 1-(2-acetyl-2,6-diazaspiro[3.5]non-6-yl)-5H-pyrido[4,3-b]indole-4-carboxamide] has an IC50 of 271 nM.
`CC(C)(C)OC(=O)N1CCC(c2ccc3[nH]c4c(C(N)=O)cnc(N5CCCC6(CCNC6=O)C5)c4c3c2)CC1` (stereo not shown) [Example 46, tert-butyl 4-[4-carbamoyl-1-(1-oxo-2,7-diazaspiro[4.5]dec-7-yl)-5H-pyrido[4,3-b]indol-8-yl]piperidine-1-carboxylate] gave an IC50 of 377 nM.
For `NC(=O)c1cnc(N2CCCC3(C2)OCCN(c2ccc(F)cc2)C3=O)c2c1[nH]c1ccccc12` (stereo not shown) [Example 3, 1-(4-(4-fluorophenyl)-5-oxo-1-oxa-4,8-diazaspiro[5.5]undecan-8-yl)-5H-pyrido[4,3-b]indole-4-carboxamide], the IC50 was 109 nM.
`COC(=O)CCN1CCCC2(CCCN(c3ncc(C(N)=O)c4[nH]c5ccccc5c34)C2)C1=O` (stereo not shown) [Example 31, methyl 3-[8-(4-carbamoyl-5H-pyrido[4,3-b]indol-1-yl)-1-oxo-2,8-diazaspiro[5.5]undec-2-yl]propanoate] showed an IC50 of 96.8 nM.
`NC(=O)c1cnc(N2CCCC3(CCNC3=O)C2)c2c1[nH]c1cc(C3CCN(CC(=O)O)CC3)ccc12` (stereo not shown) [Example 59, {4-[4-carbamoyl-1-(1-oxo-2,7-diazaspiro[4.5]dec-7-yl)-5H-pyrido[4,3-b]indol-7-yl]piperidin-1-yl}acetic acid] gave an IC50 of 1.6 nM.
In the case of `CC(=O)N1CCC2(CCN(c3ncc(C(N)=O)c4[nH]c5ccccc5c34)CC2)C1` [Example 14, 1-(2-acetyl-2,8-diazaspiro[4.5]dec-8-yl)-5H-pyrido[4,3-b]indole-4-carboxamide], the IC50 is reported as 26 nM.
Compound `CN1CCC(c2ccc3[nH]c4c(C(N)=O)cnc(N5CCCC6(CCNC6=O)C5)c4c3c2)CC1` (stereo not shown) [Example 60, 8-(1-methylpiperidin-4-yl)-1-(1-oxo-2,7-diazaspiro[4.5]dec-7-yl)-5H-pyrido[4,3-b]indole-4-carboxamide] has an IC50 of 76.9 nM.
For `CC(C)(C)OC(=O)N1CCC2(C1)CN(c1ncc(C(N)=O)c3[nH]c4ccccc4c13)C2` [Example 21, tert-butyl 2-(4-carbamoyl-5H-pyrido[4,3-b]indol-1-yl)-2,6-diazaspiro[3.4]octane-6-carboxylate], the IC50 was 435 nM.
`CC(C)N1CCCC2(CCCN(c3ncc(C(N)=O)c4[nH]c5ccccc5c34)C2)C1=O` (stereo not shown) [Example 39, 1-[8-(1-methylethyl)-7-oxo-2,8-diazaspiro[5.5]undec-2-yl]-5H-pyrido[4,3-b]indole-4-carboxamide] showed an IC50 of 120 nM.
`CC(=O)N1CCC(c2ccc3c(c2)[nH]c2c(C(N)=O)cnc(N4CCCC5(CCNC5=O)C4)c23)CC1` (stereo not shown) [Example 58, 7-(1-acetylpiperidin-4-yl)-1-(1-oxo-2,7-diazaspiro[4.5]dec-7-yl)-5H-pyrido[4,3-b]indole-4-carboxamide] was tested, and the IC50 was 1.4 nM.
Compound `NC(=O)c1cnc(N2CCC3(CCNCC3)C2)c2c1[nH]c1ccccc12` [Example 15, 1-(2,8-diazaspiro[4.5]dec-2-yl)-5H-pyrido[4,3-b]indole-4-carboxamide] has an IC50 of 37.4 nM.
Work on `COC(=O)CC1CCC(c2ccc3c(c2)[nH]c2c(C(N)=O)cnc(N4CCC[C@@]5(CCN(C)C5=O)C4)c23)CC1` (stereo partly drawn) [Example 81, methyl (4-{4-carbamoyl-1-[(5R)-2-methyl-1-oxo-2,7-diazaspiro[4.5]dec-7-yl]-5H-pyrido[4,3-b]indol-7-yl}cyclohexyl)acetate] yielded an IC50 of 5.5 nM.

Same assay, conditions: BTK binding potency IC50 (nM), 50 pM hBTK, 2 μM biotin-A5-peptide, 25 μM ATP; 60 minute compound & enzyme incubation; 120 minutes reaction
`NC(=O)c1cnc(N2CCCC3(CCNC3=O)C2)c2c1[nH]c1ccccc12` (stereo not shown) [Example 34, 1-(1-oxo-2,7-diazaspiro[4.5]dec-7-yl)-5H-pyrido[4,3-b]indole-4-carboxamide] gave an IC50 of 17.2 nM.
